Peptide text beside a SMILES is read from it. * marks the point of attachment. Trt = c1ccc(C(c2ccccc2)(c2ccccc2)*)cc1; Cbz = O=C(OCc1ccccc1)*; NHNH2 = NN*
Biological target: Cdc42 (Homo sapiens, UniProt P60953)
Test: Cdc42-GEF-assay, additional compound screening
Assay type: biochemical
Set-up: purchased Cytoskeleton Inc
Conditions: for % ZCL367 (inhibitor activity): percentages of ZCL367 normalized to batch, less than 100% = more potent inhibitor; for % ZCL278 (with GEF): assay slope relative to ZCL278, normalized to batch; for % ZCL278 (without GEF): baseline slope relative to ZCL278, normalized to batch; for % ZCL278 (activator activity): percentages of ZCL278 activity normalized to batch, more than 100% = more potent activator, Table 9
Protocol: Rho-GEF IC50 Assay: Rho-GEF assay (Cytoskeleton Inc., Denver, Colorado, United States of America) was conducted per manufacturer's instructions (λex=360 nm, λem=460 nm). Briefly, a solution (50 μL) of purified Rho GTPase (1 μM) and mant-GTP (1.5 μM) with or without compound (0.001-500 μM) was prepared and the absorbance monitored for 10-30 min to obtain the background/baseline. The addition of purified GEF/DH domain (0.08-0.2 μM) was carried out simultaneously and the absorbance was recorded for 30-45 min. The linear slope following the addition of the GEF was calculated and expressed as percentage of the control and plotted on an IC50 curve.
Cdc42 (1 μM) was incubated with mant-GTP (1.5 μM) and varying concentrations of ZCL278, ZCL279, or ZCL367 (5-500 μM). Fluorescent readings were taken every minute for 10 m to acquire the baseline. The GEF/DH domain (0.08-0.2 μM) was added followed by readings taken every minute for another 30 m. The linear phase was calculated from within the time period of 12-22 m. Cdc42 (1 μM) was incubated with mant-GTP (1.5 μM) and varying concentrations of ZCL278, ZCL279, or ZCL367 (5-500 μM). Fluorescent readings were taken every minute for 30 m to monitor the binding of mant-GTP in the absence of GEF/DH domain.
Cdc42-GEF-assays were conducted on additional screening compounds in batches of 9 compounds per batch as described above in Example 2 using ZCL278 and ZCL367 as standards. Screening compounds were taken from the Specs Chemistry Database of 197,000 compounds for small molecule or the National Cancer Institute Compound Library. […] These compounds promote Cdc42-mantGTP binding without GEF. It is possible that these compounds can inhibit Cdc42-mantGTP binding with GEF. […] These compounds appear to have activity like ZCL279. […] However, upon the addition of GEF, the compounds appear to facilitate the binding of mantGTP to Cdc42 (high assay slope, relative to ZCL278)

Chain of Cdc42 (P60953 whole entry): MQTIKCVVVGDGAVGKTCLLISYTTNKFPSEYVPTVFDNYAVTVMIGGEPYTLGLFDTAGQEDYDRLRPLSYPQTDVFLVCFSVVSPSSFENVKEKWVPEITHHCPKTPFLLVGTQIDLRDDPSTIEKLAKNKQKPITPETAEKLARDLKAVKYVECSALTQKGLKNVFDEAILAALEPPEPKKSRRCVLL

Row | % ZCL367 (inhibitor activity) | % ZCL278 (with GEF) | % ZCL278 (without GEF) | SMILES | further results
1 | 64.92% |  |  | CC1(C)OCC(C2OC(O)C3OC(C)(C)OC32)O1 (stereo not shown) [NSC25268] | 
2 |  | 92.160% | 15.832% | OCN1CCC2N(CO)CCC3N(CO)CCC1N23 (stereo not shown) [NSC81461] | 
3 |  | 96.844% | 34.327% | O=c1[nH]cc(C2OCC(O)C(O)C2O)c(=O)[nH]1 (stereo not shown) [NSC94024] | 
4 |  | 185.829% | 9.098% | Cc1cn(C2OC(C(O)C(N)=O)C(O)C2O)c(=O)[nH]c1=O (stereo not shown) [NSC111600] | 
5 |  |  |  | NC1C=CN(C2OC(CO)C(O)C2O)C(=O)N1O (stereo not shown) [NSC128731] | % ZCL278 (activator activity): 108.28%
6 |  | 96.611% | 31.919% | NNC(=O)C(Cc1cnc[nH]1)NC(=O)CNC(=O)C(CSC(c1ccccc1)(c1ccccc1)c1ccccc1)NC(=O)OCc1ccccc1 (stereo not drawn) [NSC129911] (Cbz-Cys(Trt)-Gly-His-NHNH2; configuration not given here) | 
7 |  | 82.316% | 20.812% | CC1(C)OC2COC(c3[nH]nc(C(N)=O)c3C(=O)N=[N+]=[N-])C2O1 (stereo not shown) [NSC136024] | 
8 | 62.98% |  |  | NC(=O)c1[nH]nc(C2OC(CO)C(O)C2O)c1O (stereo not shown) [NSC143095] | 
9 |  | 127.593% | 12.229% | NS(=O)(=O)c1ccc(NC2OCC(O)C(O)C2O)cc1 (stereo not shown) [NSC158437] | 
10 | 70.58% |  |  | Cc1c2oc3c(C)ccc(C(=O)NC(C(N)=O)C(C)O)c3nc-2c(C(=O)NC(C(N)=O)C(C)O)c(N)c1=O (stereo not shown) [NSC407188] | 
11 | 29.97% |  |  | O=C(CCCN1C(=O)/C(=C2\SC(=S)N(CCCC(=O)Nc3ccccc3O)C2=O)SC1=S)Nc1ccccc1O [ZCL1100] | 
12 | 3.42% |  |  | CCCCCn1c(O)c(C(=O)Nc2ccccc2S(N)(=O)=O)c(=O)c2ccccc21 [ZCL1105] | 
13 | 62.37% |  |  | O=C1C2C(C(=O)N1/N=C/c1c(O)ccc3ccccc13)[C@H]1C=CC2C12CC2 (stereo partly shown) [ZCL1107] | 
14 | 55.74% |  |  | O=C1/C(=C/c2ccc(O)c(O)c2)SC(=S)N1Nc1ccccc1 [ZCL1109] | 
15 | 104.15% |  |  | O=C(CCCN1C(=O)/C(=C2\SC(=S)N(CCCC(=O)Nc3ccccc3O)C2=O)SC1=S)Nc1ccccc1O [ZCL1110] | 
16 | 109.35% |  |  | O=c1c2ccccc2nc(/C=C/c2c(O)ccc3ccccc23)n1-c1ccc(O)cc1 [ZCL1111] | 
17 | 27.33% |  |  | OCCNC[C@H](O)Cn1c(-c2ccccc2)c(-c2ccccc2)c2ccc3ccccc3c21 [ZCL1115] | 
18 | 74.15% |  |  | O=C(CSCc1ccccc1)Nc1ccc(C(=O)O)cc1NC(=O)CSCc1ccccc1 [ZCL1117] | 
19 | 46.77% |  |  | NC(=O)c1cc([N+](=O)[O-])ccc1NCCN1C(=O)C2C(C1=O)[C@H]1C=C[C@@H]2C1 (stereo partly shown) [ZCL1118] | 
20 |  | 103.291% | 59.173% | O=C(CCN1C(=O)C2C(C1=O)[C@H]1C=C[C@@H]2C1)Nc1cccc2ccccc12 (stereo partly shown) [ZCL1119] | 
21 | 81.19% |  |  | C[C@H](Oc1cccc(Cl)c1)C(=O)Nc1ccccc1NC(=O)[C@H](C)Oc1cccc(Cl)c1 [ZCL1120] | 
22 |  | 97.542% | 63.125% | CC(=O)Nc1ccc(Nc2nc(-c3ccc(O)cc3)cs2)cc1 [ZCL1124] | 
23 | 28.67% |  |  | NC(=O)c1ccsc1NC(=O)c1cc(-c2cccc(Br)c2)nc2ccc(Cl)cc12 [ZCL1125] | 
24 | 98.5% |  |  | O=C(Nc1ccc(S(=O)(=O)Nc2cccc3ccccc23)cc1)Nc1cccc(Cl)c1 [ZCL1127] | 
25 | 93.54% |  |  | O=C(C(=O)N1CCC(O)(CO)CC1)c1c(-c2ccccc2)cc2ccccn12 [ZCL1137] | 
26 | 88.55% |  |  | NC(=O)CCN(Cc1ccccc1)C(=O)Nc1cccc(OC2CCCC2)c1 [ZCL1139] | % ZCL278 (activator activity): 100.29%
27 |  | 98.499% | 69.001% | O=C(c1ccccc1O)N1CCOc2c(O)cc(-c3nc4ccccc4s3)cc2C1 [ZCL1142] | 
28 |  | 96.811% | 45.056% | c1ccc(-c2nc3c(c(NCc4cn5ccsc5n4)n2)CCNC3)cc1 [ZCL1143] | 
29 |  |  |  | c1ccc(-c2nc3c(c(NCc4cn5ccsc5n4)n2)CCNC3)cc1 [ZCL1144] | % ZCL278 (activator activity): 454.3%

— US12285393B2, “Roles of modulators of intersectin-Cdc42 signaling in Alzheimer's disease” (priority 2017, dated 2025)
